{"source": "paper PMC12298827", "about": "“Subchronic Toxicities of Four Per- and Polyfluoroalkyl Substances (PFASs) by Oral Exposure in Sprague–Dawley Rats” (Toxics, 2025)", "tested_on": "male and female Sprague–Dawley rats", "test": "90-day subchronic oral gavage toxicity study", "type": "in vivo, rat", "design": "key to NOEL, absolute liver weight increase / LOEL, absolute liver weight increase / NOEL, relative kidney weight increase / LOEL, relative kidney weight increase / NOEL, absolute kidney weight increase / LOEL, absolute kidney weight increase / NOEL, relative liver weight increase / LOEL, relative liver weight increase: NR: no response, no statistically significant dose-dependent changes", "method_in_brief": "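Rats dosed daily by oral gavage in corn oil (3 mL/kg) for 90 days, five dose levels plus control, n = 10/sex/group, euthanized SD 91. Endpoints: clinical observation, bodyweight, feed intake, FOB/locomotor activity, ophthalmology, terminal hematology, serum chemistry, coagulation, plasma parent PFAS, organ weights, histopathology. Groups vs control by ANOVA/Dunnett's (p<0.05).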", "data": [{"compound": "CC(=O)C(F)(F)C(F)(F)C(F)(F)F", "note": "[MHFPK, Methyl heptafluoropropyl ketone]", "values": [{"measurement": "MPV", "setting": "female, 300 mg/kg-day", "result": "9.01 ± 0.50", "unit": "fL"}, {"measurement": "PT", "setting": "female, 300 mg/kg-day", "result": 15.33, "unit": "s"}, {"measurement": "RBC", "setting": "female, 300 mg/kg-day", "result": "8.159±0.351", "unit": "M/µL"}, {"measurement": "Total BW change", "setting": "female, 300 mg/kg-day", "result": 95.70, "unit": "g"}, {"measurement": "Total Food Consumed", "setting": "female, 300 mg/kg-day", "result": 1575, "unit": "g"}, {"measurement": "LOEL, absolute kidney weight increase", "setting": "male", "result": "NR"}, {"measurement": "LOEL, absolute liver weight increase", "setting": "male", "result": "NR"}, {"measurement": "LOEL, relative kidney weight increase", "setting": "male", "result": "NR"}, {"measurement": "LOEL, relative liver weight increase", "setting": "male", "result": "NR"}, {"measurement": "NOEL, absolute kidney weight increase", "setting": "male", "result": "NR"}, {"measurement": "NOEL, absolute liver weight increase", "setting": "male", "result": "NR"}, {"measurement": "NOEL, relative kidney weight increase", "setting": "male", "result": "NR"}, {"measurement": "NOEL, relative liver weight increase", "setting": "male", "result": "NR"}, {"measurement": "% BW Gain", "setting": "male, 18.8 mg/kg-day", "result": 103.77, "unit": "%"}, {"measurement": "% Diff, % BW Gain", "setting": "male, 18.8 mg/kg-day", "result": 6.06, "unit": "%"}, {"measurement": "% Diff, Total BW change", "setting": "male, 18.8 mg/kg-day", "result": 2.29, "unit": "%"}, {"measurement": "% Diff, Total Food Consumed", "setting": "male, 18.8 mg/kg-day", "result": -1.53, "unit": "%"}, {"measurement": "A/G", "setting": "male, 18.8 mg/kg-day", "result": "0.85±0.03", "unit": "ratio"}, {"measurement": "ABNEUT", "setting": "male, 18.8 mg/kg-day", "result": "2.172±0.976", "unit": "K/µL"}, {"measurement": "ABRETi", "setting": "male, 18.8 mg/kg-day", "result": "179.08±30.61 10^9/L"}, {"measurement": "ABSEOS", "setting": "male, 18.8 mg/kg-day", "result": "0.110±0.032", "unit": "K/µL"}, {"measurement": "ALB", "setting": "male, 18.8 mg/kg-day", "result": "3.17 ± 0.18", "unit": "g/dL"}, {"measurement": "ALPi", "setting": "male, 18.8 mg/kg-day", "result": "114.0±26.8", "unit": "U/L"}, {"measurement": "APTT", "setting": "male, 18.8 mg/kg-day", "result": 19.56, "unit": "s"}, {"measurement": "BUN", "setting": "male, 18.8 mg/kg-day", "result": "14.8 ± 1.4", "unit": "mg/dL"}, {"measurement": "CHOL", "setting": "male, 18.8 mg/kg-day", "result": "78.6 ± 12.0", "unit": "mg/dL"}, {"measurement": "GLOB", "setting": "male, 18.8 mg/kg-day", "result": "3.75 ± 0.18", "unit": "g/dL"}, {"measurement": "GLUC", "setting": "male, 18.8 mg/kg-day", "result": "187.8 ± 37.5", "unit": "mg/dL"}, {"measurement": "HCT", "setting": "male, 18.8 mg/kg-day", "result": "49.80±1.91", "unit": "%"}, {"measurement": "HGB", "setting": "male, 18.8 mg/kg-day", "result": "15.51 ± 0.80", "unit": "g/dL"}, {"measurement": "Kidney Weight", "setting": "male, 18.8 mg/kg-day", "result": 3.11, "unit": "g"}, {"measurement": "Kidney/Body Weight", "setting": "male, 18.8 mg/kg-day", "result": 0.54, "unit": "%"}, {"measurement": "Kidney/Brain Weight", "setting": "male, 18.8 mg/kg-day", "result": 144, "unit": "%"}, {"measurement": "Liver Weight", "setting": "male, 18.8 mg/kg-day", "result": 14.06, "unit": "g"}, {"measurement": "Liver/Body Weight", "setting": "male, 18.8 mg/kg-day", "result": 2.41, "unit": "%"}, {"measurement": "Liver/Brain Weight", "setting": "male, 18.8 mg/kg-day", "result": 649, "unit": "%"}, {"measurement": "MPV", "setting": "male, 18.8 mg/kg-day", "result": "7.85 ± 0.72", "unit": "fL"}, {"measurement": "PT", "setting": "male, 18.8 mg/kg-day", "result": 15.63, "unit": "s"}, {"measurement": "RBC", "setting": "male, 18.8 mg/kg-day", "result": "8.891±0.355", "unit": "M/µL"}, {"measurement": "Total BW change", "setting": "male, 18.8 mg/kg-day", "result": 300.42, "unit": "g"}, {"measurement": "Total Food Consumed", "setting": "male, 18.8 mg/kg-day", "result": 2143, "unit": "g"}, {"measurement": "% BW Gain", "setting": "male, 37.5 mg/kg-day", "result": 101.81, "unit": "%"}, {"measurement": "% Diff, % BW Gain", "setting": "male, 37.5 mg/kg-day", "result": 4.06, "unit": "%"}, {"measurement": "% Diff, Total BW change", "setting": "male, 37.5 mg/kg-day", "result": 3.12, "unit": "%"}, {"measurement": "% Diff, Total Food Consumed", "setting": "male, 37.5 mg/kg-day", "result": -2.01, "unit": "%"}, {"measurement": "A/G", "setting": "male, 37.5 mg/kg-day", "result": "0.86±0.07", "unit": "ratio"}, {"measurement": "ABNEUT", "setting": "male, 37.5 mg/kg-day", "result": "1.859±0.620", "unit": "K/µL"}, {"measurement": "ABRETi", "setting": "male, 37.5 mg/kg-day", "result": "192.99±15.30 10^9/L"}, {"measurement": "ABSEOS", "setting": "male, 37.5 mg/kg-day", "result": "0.179±0.069", "unit": "K/µL"}, {"measurement": "ALB", "setting": "male, 37.5 mg/kg-day", "result": "3.17 ± 0.15", "unit": "g/dL"}, {"measurement": "ALPi", "setting": "male, 37.5 mg/kg-day", "result": "117.7±20.1", "unit": "U/L"}, {"measurement": "APTT", "setting": "male, 37.5 mg/kg-day", "result": 18.03, "unit": "s"}, {"measurement": "BUN", "setting": "male, 37.5 mg/kg-day", "result": "16.3 ± 1.2", "unit": "mg/dL"}, {"measurement": "CHOL", "setting": "male, 37.5 mg/kg-day", "result": "75.9 ± 12.3", "unit": "mg/dL"}, {"measurement": "GLOB", "setting": "male, 37.5 mg/kg-day", "result": "3.69 ± 0.27", "unit": "g/dL"}, {"measurement": "GLUC", "setting": "male, 37.5 mg/kg-day", "result": "217.1 ± 33.5", "unit": "mg/dL"}, {"measurement": "HCT", "setting": "male, 37.5 mg/kg-day", "result": "49.12±1.32", "unit": "%"}, {"measurement": "HGB", "setting": "male, 37.5 mg/kg-day", "result": "15.11 ± 0.46", "unit": "g/dL"}, {"measurement": "Kidney Weight", "setting": "male, 37.5 mg/kg-day", "result": 2.95, "unit": "g"}, {"measurement": "Kidney/Body Weight", "setting": "male, 37.5 mg/kg-day", "result": 0.50, "unit": "%"}, {"measurement": "Kidney/Brain Weight", "setting": "male, 37.5 mg/kg-day", "result": 134, "unit": "%"}, {"measurement": "Liver Weight", "setting": "male, 37.5 mg/kg-day", "result": 13.83, "unit": "g"}, {"measurement": "Liver/Body Weight", "setting": "male, 37.5 mg/kg-day", "result": 2.34, "unit": "%"}, {"measurement": "Liver/Brain Weight", "setting": "male, 37.5 mg/kg-day", "result": 627, "unit": "%"}, {"measurement": "MPV", "setting": "male, 37.5 mg/kg-day", "result": "8.18 ± 0.65", "unit": "fL"}, {"measurement": "PT", "setting": "male, 37.5 mg/kg-day", "result": 16.31, "unit": "s"}, {"measurement": "RBC", "setting": "male, 37.5 mg/kg-day", "result": "8.732±0.259", "unit": "M/µL"}, {"measurement": "Total BW change", "setting": "male, 37.5 mg/kg-day", "result": 302.87, "unit": "g"}, {"measurement": "Total Food Consumed", "setting": "male, 37.5 mg/kg-day", "result": 2133, "unit": "g"}, {"measurement": "% BW Gain", "setting": "male, 75 mg/kg-day", "result": 102.83, "unit": "%"}, {"measurement": "% Diff, % BW Gain", "setting": "male, 75 mg/kg-day", "result": 5.10, "unit": "%"}, {"measurement": "% Diff, Total BW change", "setting": "male, 75 mg/kg-day", "result": 5.10, "unit": "%"}, {"measurement": "% Diff, Total Food Consumed", "setting": "male, 75 mg/kg-day", "result": 1.92, "unit": "%"}, {"measurement": "A/G", "setting": "male, 75 mg/kg-day", "result": "0.86±0.06", "unit": "ratio"}, {"measurement": "ABNEUT", "setting": "male, 75 mg/kg-day", "result": "1.731±0.709", "unit": "K/µL"}, {"measurement": "ABRETi", "setting": "male, 75 mg/kg-day", "result": "194.58±21.06 10^9/L"}, {"measurement": "ABSEOS", "setting": "male, 75 mg/kg-day", "result": "0.132±0.036", "unit": "K/µL"}]}]}
